In patent publication US20160166676A1 (priority 2013, published 2016):

Legend:
CTLL-2 cells = assay type: cell-based
[1] = system: BMDCs infected with Influenza A virus; assay type: cell-based

**Q.** How did the “proliferation of CTLL-2 cells” value (CTLL-2 cells) turn out when DRGWGNGCGLFGKG [FLV IS mono/1] was run?
**A.** has no effect

**Q.** How did the “effect of mixing the monomer with the dimeric peptide on the suppressive activity of the dimer” value (CTLL-2 cells) turn out when “GLFGAIAGFIENGWEGCGGEKEKEK [IN F#2 monomer]” was run?
**A.** completely removes the suppressive activity of the dimers

**Q.** What about the “proliferation of CTLL-2 cells” value (CTLL-2 cells) of the same sequence?
**A.** has no effect

**Q.** How did the “interferon response to influenza infection in vitro” value [1] turn out when “GLFGAIAGFIENGWEGGGGEKEKEK [INF F#2 C17G]” was run?
**A.** enhances the interferon response
